# Results from patent publication US20080194482A1, “Selective Apac2 Receptor Peptide Agonists” (priority 2005, published 2008).
# Square brackets hold non-standard residues; d marks the D form. Peptide text beside a SMILES is read from it. * marks the point of attachment. Orn = NCCC[C@H](N)C(=O)O; Hexanoyl = CCCCCC(=O)*; Aib = CC(C)(N)C(=O)O
# T1: human VPAC1 (Homo sapiens, UniProt P32241)
# T1 construct: expressed in transfected cells
# T1 sequence (P32241 31-457): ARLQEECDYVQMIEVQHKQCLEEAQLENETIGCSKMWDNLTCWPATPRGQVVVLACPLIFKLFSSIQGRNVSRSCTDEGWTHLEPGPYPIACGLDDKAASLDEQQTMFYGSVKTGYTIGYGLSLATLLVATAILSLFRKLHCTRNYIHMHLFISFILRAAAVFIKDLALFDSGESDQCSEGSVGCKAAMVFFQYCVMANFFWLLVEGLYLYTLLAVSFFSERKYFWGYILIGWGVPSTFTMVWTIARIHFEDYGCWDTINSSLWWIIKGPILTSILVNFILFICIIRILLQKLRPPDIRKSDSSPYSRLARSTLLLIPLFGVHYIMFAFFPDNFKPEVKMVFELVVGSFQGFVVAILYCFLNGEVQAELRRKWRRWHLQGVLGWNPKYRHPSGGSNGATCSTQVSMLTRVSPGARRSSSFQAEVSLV
# T2: human PAC1 (Homo sapiens, UniProt P41586)
# T2 construct: expressed in transfected cells
# T2 sequence (P41586 21-468): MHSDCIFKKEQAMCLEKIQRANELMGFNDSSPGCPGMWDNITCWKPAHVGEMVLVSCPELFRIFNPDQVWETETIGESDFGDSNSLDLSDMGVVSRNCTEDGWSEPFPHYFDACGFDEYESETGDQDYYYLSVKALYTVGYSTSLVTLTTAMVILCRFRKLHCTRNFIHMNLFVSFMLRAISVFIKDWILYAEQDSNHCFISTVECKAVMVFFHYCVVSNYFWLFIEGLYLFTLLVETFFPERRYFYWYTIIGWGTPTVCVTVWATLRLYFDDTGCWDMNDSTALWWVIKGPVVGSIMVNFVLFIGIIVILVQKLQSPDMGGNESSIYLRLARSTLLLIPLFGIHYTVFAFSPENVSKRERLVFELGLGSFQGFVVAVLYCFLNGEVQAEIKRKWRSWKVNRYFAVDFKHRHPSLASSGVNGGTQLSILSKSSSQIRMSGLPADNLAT
# T3: rat VPAC1 receptor (rat, UniProt P30083 31-459)
# T3 sequence (looked up): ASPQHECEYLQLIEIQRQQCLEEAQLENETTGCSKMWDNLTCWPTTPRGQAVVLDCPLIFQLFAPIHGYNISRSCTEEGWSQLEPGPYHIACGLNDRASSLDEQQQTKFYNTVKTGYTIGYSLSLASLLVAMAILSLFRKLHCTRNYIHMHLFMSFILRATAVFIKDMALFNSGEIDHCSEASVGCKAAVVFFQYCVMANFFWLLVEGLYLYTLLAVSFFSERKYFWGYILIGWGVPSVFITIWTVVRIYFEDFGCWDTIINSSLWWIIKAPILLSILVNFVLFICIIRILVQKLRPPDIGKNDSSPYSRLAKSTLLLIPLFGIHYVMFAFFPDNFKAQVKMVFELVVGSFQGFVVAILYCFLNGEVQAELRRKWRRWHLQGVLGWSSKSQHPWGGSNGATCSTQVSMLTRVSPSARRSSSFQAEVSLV
# T4: rat VPAC2 receptor (rat, UniProt P35000 23-437)
# T4 sequence (looked up): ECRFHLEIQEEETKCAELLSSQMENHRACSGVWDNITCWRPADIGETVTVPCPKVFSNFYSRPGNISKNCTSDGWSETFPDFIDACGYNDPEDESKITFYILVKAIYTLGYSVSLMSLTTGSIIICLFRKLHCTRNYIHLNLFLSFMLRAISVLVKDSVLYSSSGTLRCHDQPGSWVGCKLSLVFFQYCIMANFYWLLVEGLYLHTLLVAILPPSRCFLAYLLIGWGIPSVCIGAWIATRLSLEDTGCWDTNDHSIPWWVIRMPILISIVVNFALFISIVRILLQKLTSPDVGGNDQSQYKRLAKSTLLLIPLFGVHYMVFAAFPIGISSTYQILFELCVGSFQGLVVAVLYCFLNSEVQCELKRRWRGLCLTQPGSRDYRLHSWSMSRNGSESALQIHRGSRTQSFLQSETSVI
# T5: human VPAC2 receptor (human, UniProt P41587 24-438)
# T5 sequence (looked up): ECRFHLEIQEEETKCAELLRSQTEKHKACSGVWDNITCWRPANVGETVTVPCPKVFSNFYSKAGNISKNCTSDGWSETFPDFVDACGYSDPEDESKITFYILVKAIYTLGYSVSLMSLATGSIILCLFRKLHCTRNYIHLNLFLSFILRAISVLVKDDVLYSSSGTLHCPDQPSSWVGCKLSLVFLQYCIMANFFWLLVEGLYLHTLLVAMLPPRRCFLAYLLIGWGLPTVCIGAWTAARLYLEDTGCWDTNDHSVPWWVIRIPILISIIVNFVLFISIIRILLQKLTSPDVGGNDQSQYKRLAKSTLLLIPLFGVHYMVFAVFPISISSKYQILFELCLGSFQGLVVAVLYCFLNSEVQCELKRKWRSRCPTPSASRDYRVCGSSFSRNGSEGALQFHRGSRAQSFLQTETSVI
# Assays:
# [1] = Rat serum stability (activity remaining, CHO-VPAC2 DiscoveRx read-out); format: in vitro ADME
# Method: The rat serum is stored at 4° C. until use and is used within two weeks. […] The aliquot is stored with aprotinin at 4° C. The aliquot is stored without aprotinin at 37° C. The aliquots are incubated overnight. […] The plate(s) are washed with cells twice in incubation buffer. The plates are allowed to hold 50 μL incubation media per well for 15 minutes. 50 μL solution per well is transferred to the cells from the plate prepared with 11 serial 5× dilutions of peptide for the 4° C. and 37° C. aliquot for each peptide studied, using the maximal concentrations that are indicated by the primary screen, in duplicate. This step dilutes the peptide concentration by a factor of two. The cells are incubated at room temperature for 30 minutes. […] The cells are incubated on the shaker (300 rpm) for 1 hour. Normal procedure with the DiscoveRx kit is followed. cAMP standards are included in column 12. EC50 values are determined from the cAMP assay data.
# [2] = target: T1, human VPAC1; assay: Filter binding assay, 125I-labeled VIP tracer, VPAC1 membranes; conditions: read-out: Human VPAC1 Receptor Binding (IC50; nM)
# [3] = target: T2, human PAC1; assay: Filter binding assay, 125I-labeled PACAP-27 tracer, PAC1 membranes; conditions: read-out: Human PAC1 Receptor Binding (IC50; nM)
# Method: For this assay, the solutions and equipment include:
# Presoak solution: 0.5% Polyethyleneamine in Aqua dest
# Buffer for flushing filter plates: 25 mM HEPES pH 7.4
# Blocking buffer: 25 mM HEPES pH 7.4; 0.2% protease free BSA
# Assay buffer: 25 mM HEPES pH 7.4; 0.5% protease free BSA
# Dilution and assay plate: PS-Microplate, U form
# Filtration Plate: Multiscreen FB Opaque Plate; 1.0 μM Type B Glasfiber filter
# In order to prepare the filter plates, the presoak solution is aspirated by vacuum filtration. The plates are flushed twice with 200 μL flush buffer. 200 μL blocking buffer is added to the filter plate. The filter plate is then incubated with 200 μL presoak solution for 1 hour at room temperature.
# The assay plate is filled with 25 μL assay buffer, 25 μL membranes (2.5 μg) suspended in assay buffer, 25 μL compound (agonist) in assay buffer, and 25 μL tracer (about 40000 cpm) in assay buffer. The filled plate is incubated for 1 hour with shaking.
# (§1) The transfer from assay plate to filter plate is conducted. The blocking buffer is aspirated by vacuum filtration and washed two times with flush buffer. 90 μL is transferred from the assay plate to the filter plate. The 90 μL transferred from assay plate is aspirated and washed three times with 200 μL flush buffer. The plastic support is removed. It is dried for 1 hour at 60° C. 30 μL Microscint is added. The count is performed.
# [4] = target: T3, rat VPAC1 receptor; assay: cell-based or functional assay
# [5] = target: T4, rat VPAC2 receptor; assay: cell-based or functional assay
# [6] = target: T5, human VPAC2 receptor; assay: cell-based or functional assay
# [7] = target: T5, human VPAC2 receptor; assay: filter binding, human VPAC2 membranes, competition with 125I-VIP;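 note: assay plate incubated 1 h with shaking, then filtered, with filter-retained counts measured after adding scintillant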
# Method: The filled plate is incubated for 1 hour with shaking.
# as §1
Molecule,Rat Serum Stability (estimated purity in % after overnight incub.) [1] [%],IC50 [2] [nM],IC50 [3] [nM],"Rat VPAC1 Receptor: DiscoveRx (EC50; nM), cAMP generation [4] [nM]","Rat VPAC2 Receptor: DiscoveRx (EC50; nM), cAMP generation [5] [nM]","Human VPAC2 Receptor: Alpha Screen (EC50; nM), cAMP generation [6] [nM]",IC50 [7] [nM]
CCCCCC(=O)N[C@@H](Cc1c[nH]cn1)C(=O)N[C@@H](CO)C(=O)N[C@@H](CC(=O)O)C(=O)N[C@@H](C)C(=O)N[C@H](C(=O)N[C@@H](Cc1ccccc1)C(=O)N[C@H](C(=O)N[C@@H](CC(=O)O)C(=O)N[C@@H](CC(N)=O)C(=O)N[C@@H](Cc1ccc(OC)cc1)C(=O)N[C@H](C(=O)N[C@@H](CCCNC(=N)N)C(=O)N[C@@H](CC(C)C)C(=O)N[C@@H](CCCNC(=N)N)C(=O)NC(C)(C)C(=O)N[C@@H](CCC(N)=O)C(=O)N[C@H](C(=O)N[C@@H](C)C(=O)N[C@@H](C)C(=O)NC(C)(C)C(=O)N[C@@H](CCCCN)C(=O)N[C@@H](Cc1ccc(O)cc1)C(=O)N[C@@H](CC(C)C)C(=O)N[C@@H](CCC(N)=O)C(=O)N[C@@H](CO)C(=O)N[C@H](C(=O)N[C@@H](CCCCN)C(=O)N[C@@H](CC(N)=O)C(=O)N[C@@H](CCCCN)C(=O)N[C@@H](CCCNC(=N)N)C(=O)N[C@@H](Cc1ccc(O)cc1)C(=O)NCC(=O)NCC(=O)N1CCC[C@H]1C(=O)N[C@@H](CO)C(=O)N[C@@H](CO)C(=O)NCC(=O)N[C@@H](C)C(=O)N1CCC[C@H]1C(=O)N1CCC[C@H]1C(=O)N1CCC[C@H]1C(=O)N[C@@H](CO)C(=O)O)[C@@H](C)CC)C(C)C)[C@@H](C)O)[C@@H](C)O)C(C)C [Agonist P358],13.43,–,–,–,–,–,–
CCCCCC(=O)N[C@@H](Cc1c[nH]cn1)C(=O)N[C@@H](CO)C(=O)N[C@@H](CCC(=O)O)C(=O)N[C@@H](C)C(=O)N[C@H](C(=O)N[C@@H](Cc1ccccc1)C(=O)N[C@H](C(=O)N[C@@H](CCC(=O)O)C(=O)N[C@@H](CC(N)=O)C(=O)N[C@@H](Cc1ccc(O)cc1)C(=O)N[C@H](C(=O)N[C@@H](CCCN)C(=O)N[C@@H](CC(C)C)C(=O)N[C@@H](CCCNC(=N)N)C(=O)NC(C)(C)C(=O)N[C@@H](CCC(N)=O)C(=O)N[C@H](C(=O)N[C@@H](C)C(=O)N[C@@H](C)C(=O)NC(C)(C)C(=O)N[C@@H](CCCCN)C(=O)N[C@@H](Cc1ccc(O)cc1)C(=O)N[C@@H](CC(C)C)C(=O)N[C@@H](CCC(N)=O)C(=O)N[C@@H](CO)C(=O)N[C@H](C(=O)N[C@@H](CCCN)C(=O)N[C@@H](CC(N)=O)C(=O)N[C@@H](CCCN)C(=O)NCC(=O)NCC(=O)N1CCC[C@H]1C(=O)N[C@@H](CO)C(=O)N[C@@H](CO)C(=O)NCC(=O)N[C@@H](C)C(=O)N1CCC[C@H]1C(=O)N1CCC[C@H]1C(=O)N1CCC[C@H]1C(=O)N[C@@H](CO)C(=O)O)[C@@H](C)CC)C(C)C)[C@@H](C)O)[C@@H](C)O)C(C)C [Agonist P362] (Hexanoyl-HSEAVFTENYT[Orn]LR[Aib]QVAA[Aib]KYLQSI[Orn]N[Orn]GGPSSGAPPPS-OH; C-terminus assumed),82.77,> 3000,> 25000,–,–,–,–
CCCCCC(=O)N[C@@H](Cc1c[nH]cn1)C(=O)N[C@@H](CO)C(=O)N[C@@H](CC(=O)O)C(=O)N[C@@H](C)C(=O)N[C@H](C(=O)N[C@@H](Cc1ccccc1)C(=O)N[C@H](C(=O)N[C@@H](CC(=O)O)C(=O)N[C@@H](CC(N)=O)C(=O)N[C@@H](Cc1ccc(O)cc1)C(=O)N[C@H](C(=O)N[C@@H](CCC(N)=O)C(=O)N[C@@H](CC(C)C)C(=O)N[C@@H](CCCNC(=N)N)C(=O)NC(C)(C)C(=O)N[C@@H](CCC(N)=O)C(=O)N[C@H](C(=O)N[C@@H](C)C(=O)N[C@@H](C)C(=O)NC(C)(C)C(=O)N[C@@H](CCCCN)C(=O)N[C@@H](Cc1ccc(O)cc1)C(=O)N[C@@H](CC(C)C)C(=O)N[C@@H](CCC(N)=O)C(=O)N[C@@H](CO)C(=O)N[C@H](C(=O)N[C@@H](CCCN)C(=O)N[C@@H](CC(N)=O)C(=O)N[C@@H](CCCN)C(=O)NCC(=O)NCC(=O)N1CCC[C@H]1C(=O)N[C@@H](CO)C(=O)N[C@@H](CO)C(=O)NCC(=O)N[C@@H](C)C(=O)N1CCC[C@H]1C(=O)N1CCC[C@H]1C(=O)N1CCC[C@H]1C(=O)N[C@@H](CO)C(=O)O)[C@@H](C)CC)C(C)C)[C@@H](C)O)[C@@H](C)O)C(C)C [Agonist P368] (Hexanoyl-HSDAVFTDNYTQLR[Aib]QVAA[Aib]KYLQSI[Orn]N[Orn]GGPSSGAPPPS-OH; C-terminus assumed),99.82,> 3000,> 25000,–,–,–,–
CCCCCC(=O)N[C@@H](Cc1c[nH]cn1)C(=O)N[C@@H](CO)C(=O)N[C@@H](CC(=O)O)C(=O)N[C@@H](C)C(=O)N[C@H](C(=O)N[C@@H](Cc1ccccc1)C(=O)N[C@H](C(=O)N[C@@H](CC(=O)O)C(=O)N[C@@H](CC(N)=O)C(=O)N[C@@H](Cc1ccc(O)cc1)C(=O)N[C@H](C(=O)N[C@@H](Cc1ccccc1)C(=O)N[C@@H](CC(C)C)C(=O)N[C@@H](CCCNC(=N)N)C(=O)NC(C)(C)C(=O)N[C@@H](CCC(N)=O)C(=O)N[C@H](C(=O)N[C@@H](C)C(=O)N[C@@H](C)C(=O)NC(C)(C)C(=O)N[C@@H](CCCCN)C(=O)N[C@@H](Cc1ccc(O)cc1)C(=O)N[C@@H](CC(C)C)C(=O)N[C@@H](CCC(N)=O)C(=O)N[C@@H](CO)C(=O)N[C@H](C(=O)N[C@@H](CCCN)C(=O)N[C@@H](CC(N)=O)C(=O)N[C@@H](CCCN)C(=O)NCC(=O)NCC(=O)N1CCC[C@H]1C(=O)N[C@@H](CO)C(=O)N[C@@H](CO)C(=O)NCC(=O)N[C@@H](C)C(=O)N1CCC[C@H]1C(=O)N1CCC[C@H]1C(=O)N1CCC[C@H]1C(=O)N[C@@H](CO)C(=O)O)[C@@H](C)CC)C(C)C)[C@@H](C)O)[C@@H](C)O)C(C)C [Agonist P369] (Hexanoyl-HSDAVFTDNYTFLR[Aib]QVAA[Aib]KYLQSI[Orn]N[Orn]GGPSSGAPPPS-OH; C-terminus assumed),133.76,> 3000,> 25000,–,–,–,–
"HSDAVFTDQYTXLRXQLAAXXYLQSIXXGGPSSGAPPPS (N-terminal hexanoyl (C6); Tyr(OMe) at 10; Orn at 12, 21, 27 and 28; Aib at 15 and 20) [VPAC2 receptor peptide agonist P394]",–,–,–,0.48,0.03,0.11,0.41
